We go through 1 compound from BindingDB's records for doi:10.1021/jm040129+ (The Johns Hopkins University, 2004).

The target in the assay is T1, 1,25-dihydroxyvitamin D(3) 24-hydroxylase, mitochondrial (Homo sapiens, UniProt Q07973).
T1 sequence (Q07973 whole entry): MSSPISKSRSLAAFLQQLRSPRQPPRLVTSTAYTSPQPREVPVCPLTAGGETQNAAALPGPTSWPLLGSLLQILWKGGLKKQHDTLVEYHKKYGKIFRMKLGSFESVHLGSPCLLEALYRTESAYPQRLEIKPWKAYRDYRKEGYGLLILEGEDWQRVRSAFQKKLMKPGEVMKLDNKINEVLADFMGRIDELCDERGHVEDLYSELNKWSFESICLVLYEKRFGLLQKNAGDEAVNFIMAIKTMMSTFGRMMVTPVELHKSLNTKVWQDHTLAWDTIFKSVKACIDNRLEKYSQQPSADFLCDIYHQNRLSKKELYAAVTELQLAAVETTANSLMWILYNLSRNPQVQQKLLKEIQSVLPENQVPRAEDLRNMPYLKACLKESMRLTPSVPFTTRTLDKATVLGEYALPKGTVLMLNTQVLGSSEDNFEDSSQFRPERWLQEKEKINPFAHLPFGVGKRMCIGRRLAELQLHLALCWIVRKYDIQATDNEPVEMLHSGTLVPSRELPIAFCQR
The assay can be described thus: Inhibition of human CYP24 hydroxylase expressed in V79 cells.

pIC50: −log10 of the molar value.

A word on the pIC50: it is −log10 of the IC50, conventionally taken in molar units. Read a high pIC50 as a small IC50. As for `C=C1/C(=C\C=C2/CCC[C@]3(C)[C@@H](C(C)=CC(F)=S(N)(=O)c4ccccc4)CC[C@@H]23)C[C@@H](O)C[C@@H]1O` (stereo partly specified), the pIC50 was below 6.00.
